# Experiments:
# [1] = biological target: proliferating cell nuclear antigen (PCNA) (Homo sapiens, UniProt P12004); experiment: fluorescence titration, hyperbolic single-site fit; assay type: binding; conditions: constant PCNA, increasing TNP-ATP
# creatine phosphokinase = experiment: fluorescence titration, hyperbolic single-site fit; conditions: known ATP-binding protein for comparison
# Sequence of proliferating cell nuclear antigen (PCNA) (P12004 whole entry): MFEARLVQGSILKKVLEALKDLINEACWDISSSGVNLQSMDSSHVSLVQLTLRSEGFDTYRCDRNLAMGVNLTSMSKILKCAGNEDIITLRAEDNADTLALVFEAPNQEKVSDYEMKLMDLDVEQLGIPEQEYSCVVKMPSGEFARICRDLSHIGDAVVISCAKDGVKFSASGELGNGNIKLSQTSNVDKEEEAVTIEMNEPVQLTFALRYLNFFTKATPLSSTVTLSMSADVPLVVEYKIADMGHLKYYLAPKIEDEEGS
substance,measurement,setting,value
TNP-ATP,Kd,[1],13 µM
same,Kd,creatine phosphokinase,27 µM

# Reference: paper PMC3771522 (Analytical chemistry, 2013)
